PMC7807814 (ACS Omega, 2020)

Target: GST–VCB protein complex (Homo sapiens, UniProt P40337)
Type: binding
Details: reported FP Kd versus TR-FRET Ki

GST–VCB protein complex, sequence (P40337 54-213): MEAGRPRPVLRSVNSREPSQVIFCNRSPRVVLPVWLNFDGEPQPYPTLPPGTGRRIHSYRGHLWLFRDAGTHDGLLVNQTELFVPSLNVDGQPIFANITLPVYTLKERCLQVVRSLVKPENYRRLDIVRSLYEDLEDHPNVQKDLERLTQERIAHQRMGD
GST–VCB protein complex, sequence (Q15369 17-112, further chain): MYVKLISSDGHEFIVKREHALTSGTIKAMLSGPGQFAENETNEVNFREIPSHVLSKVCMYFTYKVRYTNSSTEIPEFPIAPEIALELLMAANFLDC
GST–VCB protein complex, sequence (Q15370 whole entry, further chain): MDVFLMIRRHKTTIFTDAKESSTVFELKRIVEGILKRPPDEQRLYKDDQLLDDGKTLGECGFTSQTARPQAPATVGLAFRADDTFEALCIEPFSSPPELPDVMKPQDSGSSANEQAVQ

Row | Compound | sensitivity of TR-FRET assay over FAM–HIF–1α peptide (19 mer)-based FP assay [fold]
1 | CC(=O)N[C@H](C(=O)N1C[C@H](O)C[C@H]1C(=O)NCc1ccc(-c2scnc2C)cc1)C(C)(C)C [VH032 (1), (2S,4R)-1-((S)-2-Acetamido-3,3-dimethylbutanoyl)-4-hydroxy-N-(4-(4-methylthiazol-5-yl)benzyl)pyrrolidine-2-carboxamide] | 4.49
2 | Cc1ncsc1-c1ccc(CNC(=O)[C@@H]2C[C@@H](O)CN2C(=O)[C@@H](NC(=O)C2(C#N)CC2)C(C)(C)C)cc1 [VH298 (2), (2S,4R)-1-((S)-2-(1-Cyanocyclopropanecarboxamido)-3,3-dimethylbutanoyl)-4-hydroxy-N-(4-(4-methylthiazol-5-yl)benzyl)pyrrolidine-2-carboxamide] | 4.23
